The values that follow come from the NIST ThermoML archive (doi:10.1016/j.jct.2015.12.029).

± gives the expanded uncertainty stated by the source.

For orientation: mass density means the mass of a sample divided by its volume.

For series [1] the following is noted: 100 kPa, Liquid, Vibrating tube method.
Series [2] in a line: mn = molality of the nth substance listed, in mol/kg. The following applies: 100 kPa, Liquid, Vibrating tube method, m2 = 0.

As for `CCCCO` [butan-1-ol], the mass density in series [1] (283.15 K) was 817.103 ± 0.22 kg/m3; in series [1] (288.15 K) it was 813.337 ± 0.22 kg/m3; in series [1] (293.15 K), 809.548 ± 0.22 kg/m3; in series [1] (298.15 K), 805.738 ± 0.22 kg/m3; in series [1] (303.15 K), 801.901 ± 0.22 kg/m3; in series [1] (308.15 K), 798.032 ± 0.22 kg/m3. Besides, the mass density in series [1] (313.15 K) turned out to be 794.128 ± 0.23 kg/m3; in series [1] (318.15 K) it was 790.181 ± 0.23 kg/m3.
Regarding `CCCCO` [butan-1-ol] + CCCCn1cc[n+](C)c1.F[B-](F)(F)F, the mass density in series [2] (283.15 K) turned out to be 817.103 ± 0.23 kg/m3; in series [2] (288.15 K) it was 813.337 ± 0.23 kg/m3; in series [2] (293.15 K) it was 809.548 ± 0.23 kg/m3; in series [2] (298.15 K), 805.738 ± 0.23 kg/m3; in series [2] (303.15 K), 801.901 ± 0.23 kg/m3; in series [2] (308.15 K), 798.032 ± 0.23 kg/m3. The mass density in series [2] (313.15 K) is 794.128 ± 0.23 kg/m3; in series [2] (318.15 K), 790.181 ± 0.23 kg/m3.
Regarding `CCCCO` [butan-1-ol] + CCn1cc[n+](C)c1.F[B-](F)(F)F, the mass density in series [2] (283.15 K) worked out at 817.103 ± 0.23 kg/m3; in series [2] (288.15 K) it was 813.337 ± 0.23 kg/m3; in series [2] (293.15 K) it was 809.548 ± 0.23 kg/m3; in series [2] (298.15 K) it was 805.738 ± 0.23 kg/m3; in series [2] (303.15 K), 801.901 ± 0.23 kg/m3; in series [2] (308.15 K), 798.032 ± 0.23 kg/m3. The mass density in series [2] (313.15 K) amounted to 794.128 ± 0.23 kg/m3; in series [2] (318.15 K) it was 790.181 ± 0.23 kg/m3.
